The source of these data is ChEMBL document CHEMBL1133317, “The solid phase synthesis of tetrahydroisoquinolines having cdc25B inhibitory activity” (Bioorg Med Chem Lett, 2000).

Structures are written as SMILES. Some results are limits rather than exact numbers.

The target of the experiment is T1, M-phase inducer phosphatase 2 (Homo sapiens, UniProt P30305).
T1 sequence (P30305 whole entry): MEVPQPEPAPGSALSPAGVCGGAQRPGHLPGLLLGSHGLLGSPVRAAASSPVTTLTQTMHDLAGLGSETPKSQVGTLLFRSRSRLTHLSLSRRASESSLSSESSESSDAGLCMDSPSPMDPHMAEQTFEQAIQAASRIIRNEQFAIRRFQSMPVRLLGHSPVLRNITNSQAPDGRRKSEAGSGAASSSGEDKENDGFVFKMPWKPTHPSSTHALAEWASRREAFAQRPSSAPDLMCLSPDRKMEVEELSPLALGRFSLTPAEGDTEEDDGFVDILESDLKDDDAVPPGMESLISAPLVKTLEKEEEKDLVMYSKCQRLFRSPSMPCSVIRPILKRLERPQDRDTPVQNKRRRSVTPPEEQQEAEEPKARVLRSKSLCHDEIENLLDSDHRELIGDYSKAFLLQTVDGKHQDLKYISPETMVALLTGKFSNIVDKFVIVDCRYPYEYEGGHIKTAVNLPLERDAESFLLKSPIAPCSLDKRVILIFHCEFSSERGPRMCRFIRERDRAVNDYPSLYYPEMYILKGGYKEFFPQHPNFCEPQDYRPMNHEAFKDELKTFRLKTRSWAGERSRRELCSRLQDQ
Nature of the experiment: Compound was measured for its inhibitory activity against Cell division cycle 25B.
By IC50 is commonly meant the concentration that gives 50% inhibition. Read a high IC50 as weaker potency in that assay. For the compound `O=C(O)[C@@H]1Cc2cc(I)c(OCc3ccc(Cl)cc3Cl)c(I)c2CN1C(=O)/C=C/c1cccc(F)c1`, the IC50 came to 40 µM. The figure for `O=C(O)[C@@H]1Cc2cc(I)c(OCc3ccc(C(F)(F)F)cc3)c(I)c2CN1C(=O)/C=C/c1ccccc1C(F)(F)F` is 27 µM; for `COc1cc(/C=C/C(=O)N2Cc3c(cc(I)c(OCc4ccc(C(F)(F)F)cc4)c3I)C[C@H]2C(=O)O)cc(OC)c1OC` it is 57 µM. The figure for `Cc1ccc(/C=C/C(=O)N2Cc3c(cc(I)c(OCc4ccc(C(F)(F)F)cc4)c3I)C[C@H]2C(=O)O)cc1` is 35 µM; for `O=C(O)[C@@H]1Cc2cc(I)c(OCc3ccccc3F)c(I)c2CN1C(=O)/C=C/c1cccc(Cl)c1` it is 60 µM; for `O=C(COc1c(I)cc2c(c1I)CN(C(=O)/C=C/c1ccccc1Cl)[C@H](C(=O)O)C2)OCc1ccccc1` it is 70 µM. The figure for `COc1cccc(COc2c(I)cc3c(c2I)CN(C(=O)/C=C/c2ccc(C)cc2)[C@H](C(=O)O)C3)c1` is 62 µM; for `Cc1ccc(/C=C/C(=O)N2Cc3c(cc(I)c(OCc4ccc(Cl)cc4Cl)c3I)C[C@H]2C(=O)O)cc1` it is 27 µM.

The compound `O=C(O)[C@@H]1Cc2cc(I)c(OCc3ccc(Cl)cc3Cl)c(I)c2CN1C(=O)/C=C/c1cccc(Cl)c1` came in with an IC50 of 35 µM.

The compound `O=C(O)[C@@H]1Cc2cc(I)c(OCc3cccc(C(F)(F)F)c3)c(I)c2CN1C(=O)c1cccnc1Cl` yielded an IC50 of 30 µM. The figure for `O=C(O)[C@@H]1Cc2cc(I)c(OCc3ccc(C(F)(F)F)cc3)c(I)c2CN1C(=O)/C=C/c1ccc2c(c1)OCO2` is 32 µM; for `O=C(O)[C@@H]1Cc2cc(I)c(OCc3cccc(C(F)(F)F)c3)c(I)c2CN1C(=O)/C=C/c1ccccc1F` it is 35 µM; for `O=C(O)[C@@H]1Cc2cc(I)c(OCc3cccc(C(F)(F)F)c3)c(I)c2CN1C(=O)/C=C/c1cccc(F)c1` it is 45 µM. Next, `O=C(O)[C@@H]1Cc2cc(I)c(OCc3ccc(C(F)(F)F)cc3)c(I)c2CN1C(=O)/C=C/c1ccccc1F`: 55 µM; `O=C(O)[C@@H]1Cc2cc(I)c(OCc3ccc(Cl)cc3Cl)c(I)c2CN1C(=O)/C=C/c1ccccc1Cl`: 15 µM; `O=C(O)[C@@H]1Cc2cc(I)c(OCc3c(Cl)cccc3Cl)c(I)c2CN1C(=O)/C=C/c1cccc(F)c1`: 45 µM. As for `O=C(O)[C@@H]1Cc2cc(I)c(OCc3ccc(Cl)cc3Cl)c(I)c2CN1C(=O)CCc1ccccc1`, the midpoint of inhibition, the IC50, lay at 50 µM.

Take `O=C(O)[C@@H]1Cc2cc(I)c(OCc3cccc(C(F)(F)F)c3)c(I)c2CN1C(=O)/C=C/c1ccccc1C(F)(F)F`: the midpoint of inhibition, the IC50, lay at 36 µM.

For the compound `O=C(COc1c(I)cc2c(c1I)CN(C(=O)/C=C/c1ccccc1Br)[C@H](C(=O)O)C2)OCc1ccccc1`, the IC50 was 45 µM. For the compound `O=C(O)[C@@H]1Cc2cc(I)c(OCc3ccc(C(F)(F)F)cc3)c(I)c2CN1C(=O)/C=C/c1ccc(Cl)cc1`, the IC50 is 30 µM. The figure for `O=C(O)[C@@H]1Cc2cc(I)c(OCc3ccc(Cl)cc3Cl)c(I)c2CN1C(=O)/C=C/c1cc(Cl)cc(Cl)c1` is 23 µM; for `COc1cccc(COc2c(I)cc3c(c2I)CN(C(=O)/C=C/c2ccc4c(c2)OCO4)[C@H](C(=O)O)C3)c1` it is 58 µM; for `O=C(O)[C@@H]1Cc2cc(I)c(OCc3ccccc3F)c(I)c2CN1C(=O)/C=C/c1cccc(F)c1` it is 75 µM. Next, `O=C(O)[C@@H]1Cc2cc(I)c(OCc3ccccc3F)c(I)c2CN1C(=O)/C=C/c1ccc(Cl)c(Cl)c1`: 75 µM; `O=C(O)[C@@H]1Cc2cc(I)c(OCc3ccc(Cl)cc3Cl)c(I)c2CN1C(=O)/C=C/c1ccc(Cl)cc1`: 35 µM. Next, `O=C(O)[C@@H]1Cc2cc(I)c(OCCCCl)c(I)c2CN1C(=O)/C=C/c1ccccc1Cl`: 27 µM; `O=C(O)[C@@H]1Cc2cc(I)c(OCc3ccccc3F)c(I)c2CN1C(=O)CCc1ccccc1`: 80 µM. In the case of `O=C(O)[C@@H]1Cc2cc(I)c(OCc3cccc(C(F)(F)F)c3)c(I)c2CN1C(=O)CCc1ccccc1`, the midpoint of inhibition, the IC50, lay at 50 µM. The compound `O=C(O)[C@@H]1Cc2cc(I)c(OCc3ccc(Cl)cc3Cl)c(I)c2CN1C(=O)/C=C/c1ccc([N+](=O)[O-])cc1` registered an IC50 of 45 µM. The figure for `O=C(O)[C@@H]1Cc2cc(I)c(OCc3cccc(C(F)(F)F)c3)c(I)c2CN1C(=O)/C=C/c1ccc([N+](=O)[O-])cc1` is 50 µM; for `O=C(O)[C@@H]1Cc2cc(I)c(OCc3cccc(C(F)(F)F)c3)c(I)c2CN1C(=O)/C=C/c1ccc2c(c1)OCO2` it is 66 µM.

For the compound `O=C(COc1c(I)cc2c(c1I)CN(C(=O)/C=C/c1cccc(Br)c1)[C@H](C(=O)O)C2)OCc1ccccc1`, inhibition was half-maximal at 90 µM (IC50).

The compound `O=C(O)C1Cc2cc(I)c(OCc3c(Cl)cccc3Cl)c(I)c2CN1C(=O)C1CCCC1` (stereo not drawn) registered an IC50 of 100 µM.

`O=C(O)[C@@H]1Cc2cc(I)c(OCc3c(Cl)cccc3Cl)c(I)c2CN1C(=O)CCc1ccccc1` registered an IC50 of over 100 µM. Next, `O=C(O)[C@@H]1Cc2cc(I)c(OCc3ccc(Cl)cc3Cl)c(I)c2CN1C(=O)/C=C/c1ccc(Cl)c(Cl)c1`: 30 µM. Next, `C/C(=C\c1ccccc1)C(=O)N1Cc2c(cc(I)c(OCc3ccc(Cl)cc3Cl)c2I)C[C@H]1C(=O)O`: 40 µM; `O=C(O)[C@@H]1Cc2cc(I)c(OCc3ccc(Cl)cc3Cl)c(I)c2CN1C(=O)/C=C/c1ccc(Br)cc1`: 23 µM; `O=C(O)[C@@H]1Cc2cc(I)c(OCc3c(Cl)cccc3Cl)c(I)c2CN1C(=O)/C=C/c1cccc(Cl)c1`: 20 µM.

Compound `O=C(O)[C@@H]1Cc2cc(I)c(OCc3cccc(C(F)(F)F)c3)c(I)c2CN1C(=O)/C=C/c1cccc(C(F)(F)F)c1` displayed an IC50 of 50 µM. Next, `O=C(O)[C@@H]1Cc2cc(I)c(OCc3cccc(C(F)(F)F)c3)c(I)c2CN1C(=O)/C=C/c1cccc(Cl)c1`: 40 µM.

Consider `O=C(O)[C@@H]1Cc2cc(I)c(OCc3ccc(Cl)cc3Cl)c(I)c2CN1C(=O)c1cccnc1Cl`, for which the IC50 was over 100 µM. The figure for `O=C(O)[C@@H]1Cc2cc(I)c(OCc3ccc(C(F)(F)F)cc3)c(I)c2CN1C(=O)/C=C/c1cccc(F)c1` is 30 µM. Next, `O=C(O)[C@@H]1Cc2cc(I)c(OCc3cccc(C(F)(F)F)c3)c(I)c2CN1C(=O)/C=C/c1ccc(Cl)c(Cl)c1`: 75 µM; `O=C(COc1c(I)cc2c(c1I)CN(C(=O)/C=C/c1ccc(Br)cc1)[C@H](C(=O)O)C2)OCc1ccccc1`: 90 µM; `COc1cccc(COc2c(I)cc3c(c2I)CN(C(=O)/C=C/c2ccc(Cl)cc2)[C@H](C(=O)O)C3)c1`: 75 µM.

`O=C(O)[C@@H]1Cc2cc(I)c(OCc3ccc(C(F)(F)F)cc3)c(I)c2CN1C(=O)/C=C/c1ccc([N+](=O)[O-])cc1`: half-maximal inhibition (IC50) was put at 55 µM.

`Cc1ccc(/C=C/C(=O)N2Cc3c(cc(I)c(OCc4cccc(C(F)(F)F)c4)c3I)C[C@H]2C(=O)O)cc1` displayed an IC50 of 30 µM. Next, `O=C(O)[C@@H]1Cc2cc(I)c(OCc3c(Cl)cccc3Cl)c(I)c2CN1C(=O)c1cccnc1Cl`: 45 µM; `O=C(O)[C@@H]1Cc2cc(I)c(OCCCCl)c(I)c2CN1C(=O)/C=C/c1ccc(Br)cc1`: 70 µM; `O=C(O)[C@@H]1Cc2cc(I)c(OCCCCl)c(I)c2CN1C(=O)/C=C/c1ccccc1Br`: 33 µM. Next, `O=C(O)[C@@H]1Cc2cc(I)c(OCc3c(Cl)cccc3Cl)c(I)c2CN1C(=O)/C=C/c1cccc(C(F)(F)F)c1`: 35 µM. The figure for `O=C(O)[C@@H]1Cc2cc(I)c(OCc3ccc(Cl)cc3Cl)c(I)c2CN1C(=O)/C(F)=C/c1ccccc1` is 36 µM; for `O=C(O)[C@@H]1Cc2cc(I)c(OCc3c(Cl)cccc3Cl)c(I)c2CN1C(=O)/C=C/c1ccc(Cl)c(Cl)c1` it is 55 µM; for `O=C(O)[C@@H]1Cc2cc(I)c(OCc3ccc(Cl)cc3Cl)c(I)c2CN1C(=O)/C=C/c1cccc(C(F)(F)F)c1` it is 15 µM. For the compound `O=C(O)[C@@H]1Cc2cc(I)c(OCCCCl)c(I)c2CN1C(=O)/C=C/c1ccc(Cl)cc1Cl`, the IC50 was determined as 52 µM. Next, `O=C(O)[C@@H]1Cc2cc(I)c(OCc3ccc(Cl)cc3Cl)c(I)c2CN1C(=O)/C=C/c1ccc2c(c1)OCO2`: 60 µM; `O=C(O)[C@@H]1Cc2cc(I)c(OCCCCl)c(I)c2CN1C(=O)/C(F)=C/c1ccccc1`: 100 µM; `O=C(O)[C@@H]1Cc2cc(I)c(OCc3ccccc3F)c(I)c2CN1C(=O)/C=C/c1cccc(C(F)(F)F)c1`: 45 µM. The compound `O=C(O)[C@@H]1Cc2cc(I)c(OCc3ccc(Cl)cc3Cl)c(I)c2CN1C(=O)/C=C/c1cccc(Br)c1` came in with an IC50 of 40 µM.

`O=C(O)[C@@H]1Cc2cc(I)c(OCCCCl)c(I)c2CN1C(=O)/C=C/c1cccc(Br)c1` had an IC50 of 70 µM. Next, `O=C(COc1c(I)cc2c(c1I)CN(C(=O)/C(F)=C/c1ccccc1)[C@H](C(=O)O)C2)OCc1ccccc1`: 90 µM; `O=C(COc1c(I)cc2c(c1I)CN(C(=O)/C=C/c1ccc(Cl)cc1Cl)[C@H](C(=O)O)C2)OCc1ccccc1`: 28 µM; `O=C(O)[C@@H]1Cc2cc(I)c(OCc3ccc(Cl)cc3Cl)c(I)c2CN1C(=O)/C=C/c1ccccc1Br`: 33 µM.
